The values that follow come from patent US8309097B2, “C-type lectin binding molecules, identification and uses thereof” (Vereniging voor Christelijk Wetenschappelijk Onderwijs, priority 2002, dated 2012).

Entries after “also recorded” stand apart in the source; their conditions may differ. Read-outs that look alike come from different tables or passages of the source.

The target in one assay is mSIGNR1 (Mus musculus, UniProt Q8CJ91). The class given is cell-based, murine.
Assay [1] deals with T1, DC-SIGN expressed by K562 transfectants (Homo sapiens, UniProt Q9NNX6).
T1 construct: expressed in transfected cells; host or cells: K562
T1 sequence (Q9NNX6 1-404): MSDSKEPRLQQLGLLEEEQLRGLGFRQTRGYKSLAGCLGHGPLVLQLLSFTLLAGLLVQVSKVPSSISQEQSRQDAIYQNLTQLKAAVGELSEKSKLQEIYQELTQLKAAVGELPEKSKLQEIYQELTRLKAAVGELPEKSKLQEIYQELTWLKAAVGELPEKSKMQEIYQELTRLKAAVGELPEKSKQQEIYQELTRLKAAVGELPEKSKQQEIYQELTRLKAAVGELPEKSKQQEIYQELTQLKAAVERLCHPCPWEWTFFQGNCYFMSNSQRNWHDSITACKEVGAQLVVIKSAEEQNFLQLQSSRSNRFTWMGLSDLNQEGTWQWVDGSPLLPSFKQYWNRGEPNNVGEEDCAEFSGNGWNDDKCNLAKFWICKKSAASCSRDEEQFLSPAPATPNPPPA
The class given is cell-based.

Assay [2] concerns the target L-SIGN expressed by K562 transfectants (Homo sapiens, UniProt Q9H2X3). The class given is cell-based.
For assay [3], the target named is T2, DC-SIGN on immature monocyte derived DC (Homo sapiens, UniProt Q9NNX6).
T2 construct: Immature DC were cultured from monocytes in the presence of IL-4 and GM-CSF; endogenous in cells; host or cells: immature monocyte-derived dendritic cells
T2 sequence (Q9NNX6 1-404): T1 sequence (Q9NNX6 1-404)
The assay is described as follows: Fluorescent bead adhesion assay, immature DC. The assay is classed as cell-based.

For the next assay, the system named is granulocytes. In words: DC-SIGN-Fc adhesion to granulocytes.
The test system of a further assay is immature DC. The assay is classed as cell-based, human.
The target of assay [4] is T3, DC-SIGN-Fc (Homo sapiens, UniProt Q9NNX6).
T3 sequence (Q9NNX6 64-404): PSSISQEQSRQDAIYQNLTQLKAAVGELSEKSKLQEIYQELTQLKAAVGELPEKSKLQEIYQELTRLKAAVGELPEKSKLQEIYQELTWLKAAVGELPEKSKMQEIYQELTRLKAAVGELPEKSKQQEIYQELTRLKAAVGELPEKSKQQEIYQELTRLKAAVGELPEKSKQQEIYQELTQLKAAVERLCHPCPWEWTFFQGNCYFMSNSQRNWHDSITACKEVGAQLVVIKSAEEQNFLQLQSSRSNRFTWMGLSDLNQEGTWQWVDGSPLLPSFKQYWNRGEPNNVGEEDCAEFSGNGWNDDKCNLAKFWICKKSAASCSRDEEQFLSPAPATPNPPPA
The assay is described as follows: Soluble DC-SIGN-Fc adhesion assay (Fc ELISA).

The test system of assay [5] is K562 transfectants expressing DC-SIGN. The assay is classed as cell-based, human.
Assay [6] addresses T3, DC-SIGN-Fc. The assay is described as follows: Immunoprecipitation and detection with DC-SIGN-Fc. The assay is classed as binding. The following applies: immunoprecipitation. An excerpt:
FIG. 59. […] Cell-surface proteins are biotinylated and PMNs are lysed. Lane 1. negative control using ICAM-3 Fc to capture by IP proteins. Detection is peroxidase-labeled streptavidin. Lane 2. DC-SIGN-Fc is used to capture ligands biotinylated ligands from lysate; two protein bands are visible, the upper band consists of CD11b and CD66a, whereas the lower consists of CD18. Lane 3. Negative control; no bands are immune precipitated with anti-DC-SIGN antibodies. Lane 4, IP with antibodies against CD66acd; a faint band is visible containing CD66a. Lane 5, IP of CD11b; two bands are visible; the upper band is […] and the lower band is CD18m, which is co-immuneprecipitated with […]. Lane 6. IP with DC-SIGN ligands and detection with anti-CD66acd; CD66a is captured by DC-SIGN Fc. Lane 7. IP with DC-SIGN ligands and detection with anti-CD11b; CD11b is captured by DC-SIGN Fc. Lane 8. Negative control, IP with anti-DC-SIGN antibodies and detection with DC-SIGN-Fc. Lane 9. IP with anti-CD66acd and detection with DC-SIGN Fc; CD66a is bound by DC-SIGN on blot. Lane 10. IP with anti-CD11a and detection with DC-SIGN Fc; CD11a is bound by DC-SIGN on blot.
Immunoprecipitation. […]

Chain of mSIGNR1 (Q8CJ91 whole entry): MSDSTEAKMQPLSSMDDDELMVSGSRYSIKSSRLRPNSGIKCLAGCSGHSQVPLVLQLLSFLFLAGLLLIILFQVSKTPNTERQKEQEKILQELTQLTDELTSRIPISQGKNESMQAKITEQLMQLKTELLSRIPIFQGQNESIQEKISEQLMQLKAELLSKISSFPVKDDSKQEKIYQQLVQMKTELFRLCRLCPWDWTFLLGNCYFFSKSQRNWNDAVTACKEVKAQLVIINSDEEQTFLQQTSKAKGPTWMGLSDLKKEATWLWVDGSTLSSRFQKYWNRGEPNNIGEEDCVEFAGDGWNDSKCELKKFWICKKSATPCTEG
Chain of L-SIGN expressed by K562 transfectants (Q9H2X3 whole entry, looked up): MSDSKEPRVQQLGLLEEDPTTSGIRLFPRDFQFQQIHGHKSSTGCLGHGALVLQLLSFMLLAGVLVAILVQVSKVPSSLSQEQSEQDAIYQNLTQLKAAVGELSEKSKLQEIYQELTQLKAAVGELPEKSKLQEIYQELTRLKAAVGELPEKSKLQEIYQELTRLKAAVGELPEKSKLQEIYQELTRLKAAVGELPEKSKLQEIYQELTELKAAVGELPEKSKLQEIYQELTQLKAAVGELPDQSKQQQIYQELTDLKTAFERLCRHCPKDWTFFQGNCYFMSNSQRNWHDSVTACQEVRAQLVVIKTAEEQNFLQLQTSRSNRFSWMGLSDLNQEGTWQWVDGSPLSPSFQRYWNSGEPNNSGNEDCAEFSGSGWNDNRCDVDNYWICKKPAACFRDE

In the case of mannan, at mSIGNR1, the “binding of ligand-coated beads to K562 mSIGNR1 transfectants” value (“binding … to K562 mSIGNR1 transfectants” below) is listed as “bind” and the “inhibition of gp120 binding to mSIGNR1” value is on record as “inhibited”. In assay [1], the “binding of ligand-coated beads to K562 DC-SIGN transfectants” value (“binding … to K562 DC-SIGN transfectants” for short) is reported as “bind” and the “inhibition of gp120 binding to DC-SIGN” value is given as “inhibited”. Further, in [2], the “binding of ligand-coated beads to K562 L-SIGN transfectants” value is listed as “bind” and the “inhibition of gp120 binding to L-SIGN” value is “inhibited”. Also, in assay [3], the “inhibition of ManLAM binding by immature DC” value was “block” and the “inhibition of SEA binding to DC” value was “strongly blocked”. The “inhibition of DC-SIGN-Fc binding to granulocytes” value with granulocytes is on record as “blocked”. For the same molecule, in the assay with immature DC, the “inhibition of M. bovis BCG binding/infection of immature DC” value is “blocked the infection to a similar level as the DC-SIGN antibodies” and the “inhibition of Neisseria IgtB binding to DC” value is recorded as “partly inhibit”. In addition, on DC-SIGN-Fc [4], the “binding of DC-SIGN-Fc to coated ligand” value is recorded as “binds”; the “inhibition of DC-SIGN-Fc binding to M. tuberculosis and M. bovis BCG” value was “inhibited”. The “inhibition of internalization of M. bovis BCG by K562 DC-SIGN transfectants” value in [5] is given as “blocked”.
Regarding sialyl Lewis A, the “binding … to K562 mSIGNR1 transfectants” value on mSIGNR1 was “bind”. Further, the “binding … to K562 DC-SIGN transfectants” value in assay [1] is “bind”.
Consider sialyl-Le^x, for which the “binding … to K562 mSIGNR1 transfectants” value on mSIGNR1 was “interacts”. For the same molecule, the “binding of DC-SIGN-Fc to coated ligand” value at DC-SIGN-Fc [4] was “completely abrogates the recognition; also recorded: lower binding affinity”.
[…]-L-fucose: at DC-SIGN-Fc [4], the “binding of DC-SIGN-Fc to coated ligand” value was “lower binding affinity”.
With α1->3, α1->6 mannotriose, in assay [1], the “binding … to K562 DC-SIGN transfectants” value is recorded as “bound similarly to the glycoconjugates as DC-SIGN-Fc”. Also, in [3], the “binding of ligand-coated beads to immature DC” value is on record as “preferentially bound by DC-SIGN”. The “binding of DC-SIGN-Fc to coated ligand” value at DC-SIGN-Fc [4] is on record as “binds; also recorded: high affinity”.
In the case of “CD11b: Lewis X-expressing CD11b captured from PMN lysate”, the “binding … to K562 DC-SIGN transfectants” value in assay [1] is on record as “interacted strongly”. For the same molecule, the “binding of DC-SIGN-Fc after α-1,3,4 Fucosidase treatment of the ligand” value in the assay with DC-SIGN-Fc [6] is on record as “abrogated”. The “binding of DC-SIGN-Fc to coated ligand” value with DC-SIGN-Fc [4] (ELISA, ligand coated) was “high affinity binding”.
`O=C(O)CN(CCOCCOCCN(CC(=O)O)CC(=O)O)CC(=O)O` [EGTA]: in assay [3], the “inhibition of ManLAM binding by immature DC” value is listed as “block”. Also, in the assay with granulocytes, the “inhibition of DC-SIGN-Fc binding to granulocytes” value is reported as “blocked”. Further, at DC-SIGN-Fc [4] (coated SEA), the “inhibition of DC-SIGN-Fc binding to SEA” value is “completely inhibited”. Further, the “inhibition of DC-SIGN-Fc binding to M. tuberculosis and M. bovis BCG” value at DC-SIGN-Fc [4] (coated whole mycobacteria) is “inhibited”.
